Test results reported in patent US9822147B2, “Methods of treating ophthalmic diseases using NPR-B agonists” (priority 2009, dated 2017).
pEC50: −log10 of the molar value. Numbered stars: 1 amine (or outer) side, 2 acyl side, 3 side chain; on linkers, the order of the positions; unused ones are H or OH. Square brackets hold non-standard residues; d marks the D form. Ends that are not written are not given here. Peptide text beside a SMILES is read from it. * marks the point of attachment. Sni = (S)-nipecotic acid, O=C([C@H]1CCCN([*:1])C1)[*:2]; Pro(4R-NH2) = N[C@H]1CN[C@H](C(=O)O)C1; X2 = O=C([C@H]1CCCN([*:1])C1)[*:2]; X1 = CCCCCCCCN1CCC[C@H](C(=O)*)C1; dDap(Me2) = CN(C)C[C@@H](N)C(=O)O; Hyp = O=C(O)[C@@H]1C[C@@H](O)CN1; NHcycloheptyl = C1CCCC(N*)CC1; NMeL = CN[C@@H](CC(C)C)C(=O)O; Octanoyl = CCCCCCCC(=O)*; Api = NC1(C(=O)O)CCNCC1; Occ = octanoic acid

How the values were obtained:
[1] = target: T1, NPR-B (Homo sapiens, UniProt P20594); assay: NPR-B induced production of cyclic GMP in human glaucoma trabecular meshwork cells (GTM-3); assay type: cell-based; conditions: group by EC50 and Emax (CNP = 100%); Table 4; read-out: Activity (group), NPR-B activation assayed with GTM-3 cells
T1 construct: a functional assay using endogenously NPR-B expressing GTM-3 cells; endogenous in cells; host or cells: GTM-3 (human glaucoma trabecular meshwork cells)
T1 sequence (P20594 23-1047): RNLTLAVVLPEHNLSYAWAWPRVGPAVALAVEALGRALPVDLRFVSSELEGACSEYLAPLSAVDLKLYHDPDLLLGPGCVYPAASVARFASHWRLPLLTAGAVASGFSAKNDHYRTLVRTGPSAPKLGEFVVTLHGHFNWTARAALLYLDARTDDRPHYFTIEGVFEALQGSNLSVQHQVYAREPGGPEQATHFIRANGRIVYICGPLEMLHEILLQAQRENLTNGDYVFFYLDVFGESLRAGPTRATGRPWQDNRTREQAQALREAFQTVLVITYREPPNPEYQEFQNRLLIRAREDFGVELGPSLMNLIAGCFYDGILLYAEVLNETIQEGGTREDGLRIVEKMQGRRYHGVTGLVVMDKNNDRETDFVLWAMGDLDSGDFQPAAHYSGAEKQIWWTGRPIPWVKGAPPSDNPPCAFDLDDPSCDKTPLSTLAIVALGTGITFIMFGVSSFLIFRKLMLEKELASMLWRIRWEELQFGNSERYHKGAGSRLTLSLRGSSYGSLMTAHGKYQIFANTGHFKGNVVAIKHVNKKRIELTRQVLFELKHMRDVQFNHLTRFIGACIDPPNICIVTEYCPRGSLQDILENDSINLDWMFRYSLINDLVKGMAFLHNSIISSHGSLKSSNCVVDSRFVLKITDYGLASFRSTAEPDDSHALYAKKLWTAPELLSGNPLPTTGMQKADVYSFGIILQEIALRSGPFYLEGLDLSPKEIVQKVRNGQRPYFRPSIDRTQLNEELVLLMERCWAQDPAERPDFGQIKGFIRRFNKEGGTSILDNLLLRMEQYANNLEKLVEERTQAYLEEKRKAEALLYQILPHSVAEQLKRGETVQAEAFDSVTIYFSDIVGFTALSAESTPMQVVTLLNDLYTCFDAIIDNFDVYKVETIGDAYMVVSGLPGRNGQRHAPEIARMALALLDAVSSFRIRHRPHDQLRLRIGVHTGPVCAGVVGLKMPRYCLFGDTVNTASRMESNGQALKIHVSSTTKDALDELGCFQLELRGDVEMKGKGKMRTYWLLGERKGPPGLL

[2] = test system: rabbit eyes; assay: Efficacy in the rabbit: intraocular pressure (IOP) after a single topical ocular drop; assay type: in vivo; conditions: dose 300 ug topical ocular, single 30 μL drop, up to 4 hr post dose, 1% as suspension (+) or solution (++) per mark on label
Method: A single 30 μL drop of a test item formulation was administered to rabbit eyes (n=8 to 10).
Intraocular pressure (IOP) was assessed in each eye at 0 hr, just prior to dosing, and again hourly for up to 4 hr post dose. The efficacy of a given formulation was determined based on the difference between the pretreatment TOP readings at 0 hr and the post treatment readings. A maximum percent reduction in IOP greater than 15% was noted by the “+” symbol. A maximum IOP reduction of less than 15% was assigned the “−” symbol.

Row | Molecule | pEC50 [1] | RIOP, maximum percent reduction in IOP [2]
1 | CCCCCCCC(=O)N[C@H](C)C(=O)N[C@@H](Cc1ccccc1)C(=O)N[C@H](CCCCN)C(=O)N[C@@H](CC(C)C)C(=O)N1C[C@H](O)C[C@H]1C(=O)N(C)[C@@H](CC(C)C)C(=O)N[C@@H](CC(=O)O)C(=O)N[C@@H](CCCNC(=N)N)C(=O)N[C@H](C(N)=O)[C@@H](C)CC [JAL-1060, Occ-ala-Phe-lys-Leu-Hyp-Nml-Asp-Arg-Ile-NH2] (HELM PEPTIDE1{[CCCCCCCC(=O)[*:2]].[dA].F.[dK].L.[Hyp].[meL].D.R.I.[am]}$$$$V2.0) | > 6.00 | + (+ IOP reduction >15%)
2 | CCCCCCCCN1CCC[C@H](C(=O)N[C@@H](Cc2ccccc2)C(=O)N[C@H](CN(C)C)C(=O)N[C@@H](CC(C)C)C(=O)N2C[C@H](O)C[C@H]2C(=O)N(C)[C@@H](CC(C)C)C(=O)N[C@@H](CC(=O)O)C(=O)N[C@@H](CCCNC(=N)N)C(=O)N[C@H](C(N)=O)[C@@H](C)CC)C1 [JAL-1429, Oct-Sni-Phe-dap(Me2)-Leu-Hyp-Nml-Asp-Arg-Ile-NH2] (HELM PEPTIDE1{[CCCCCCCCN1CCC[C@H](C(=O)[*:2])C1].F.[CN(C)C[C@@H](N[*:1])C(=O)[*:2]].L.[Hyp].[meL].D.R.I.[am]}$$$$V2.0) | – | + (+ IOP reduction >15%)
3 | CCCCCCCC(=O)N[C@H](C)C(=O)N[C@@H](Cc1ccccc1)C(=O)N[C@H](CCCNC(=N)N)C(=O)N[C@@H](CC(C)C)C(=O)N1C[C@H](O)C[C@H]1C(=O)N(C)[C@@H](CC(C)C)C(=O)N[C@@H](CC(=O)O)C(=O)N[C@@H](CCCNC(=N)N)C(=O)N[C@H](C(N)=O)[C@@H](C)CC [JAL-1086, Occ-ala-Phe-arg-Leu-Hyp-Nml-Asp-Arg-Ile-NH2] (HELM PEPTIDE1{[CCCCCCCC(=O)[*:2]].[dA].F.[dR].L.[Hyp].[meL].D.R.I.[am]}$$$$V2.0) | > 6.00 | + (+ IOP reduction >15%)
4 | Occ-Sni-Phe-dap(Me2)-Leu-Hyp-Nml-Val-Arg-Ile-NH2 ([Occ][Sni]FXL[Hyp][NMeL]VRI-NH2; not fully specified (residue 4); printed as Occ-Sni-Phe-dap(Me2)-Leu-Hyp-Nml-Val-Arg-Ile-NH2) [JAL-1400] | – | + (+ IOP reduction >15%)
5 | CCCCCCCCN1CCC[C@H](C(=O)N[C@@H](Cc2ccccc2)C(=O)N[C@H](CN(C)C)C(=O)N[C@@H](CC(C)C)C(=O)N2C[C@H](N)C[C@H]2C(=O)N(C)[C@@H](CC(C)C)C(=O)N[C@@H](CC(=O)O)C(=O)N[C@@H](CCCNC(=N)N)C(=O)N[C@H](C(N)=O)[C@@H](C)CC)C1 [JAL-1369, Oct-Sni-Phe-dap(Me2)-Leu-Tap-Nml-Asp-Arg-Ile-NH2] (X1-F[dDap(Me2)]L[Pro(4R-NH2)][NMeL]DRI-NH2) | – | + (+ IOP reduction >15%)
6 | CCCCCCCC(=O)N[C@H](C)C(=O)N[C@@H](Cc1ccccc1)C(=O)N[C@H](CC(C)C)C(=O)N[C@@H](CC(C)C)C(=O)N1C[C@H](O)C[C@H]1C(=O)N(C)C(CC(C)(C)C)C(=O)N[C@@H](CC(=O)O)C(=O)N[C@@H](CCCNC(=N)N)C(=O)N[C@H](C(N)=O)[C@@H](C)CC (stereo partly drawn) [JAL-1283, Occ-ala-Phe-leu-Leu-Hyp-(SH-158)-Asp-Arg-Ile-NH2] (HELM PEPTIDE1{[CCCCCCCC(=O)[*:2]].[dA].F.[dL].L.[Hyp].[CN(C(CC(C)(C)C)C(=O)[*:2])[*:1]].D.R.I.[am]}$$$$V2.0) | > 6.00 | –
7 | CCCCCCCC(=O)N[C@H](C)C(=O)N[C@@H](Cc1ccc(Cl)cc1)C(=O)N[C@H](CC(C)C)C(=O)N[C@@H](CC(C)C)C(=O)N1C[C@H](O)C[C@H]1C(=O)N(C)[C@@H](CC(C)C)C(=O)N[C@@H](CC(=O)O)C(=O)N[C@@H](CCCNC(=N)N)C(=O)N[C@H](C(N)=O)[C@@H](C)CC [JAL-1043, Occ-ala-Pcf-leu-Leu-Hyp-Nml-Asp-Arg-Ile-NH2] (HELM PEPTIDE1{[CCCCCCCC(=O)[*:2]].[dA].[O=C([C@H](Cc1ccc(Cl)cc1)N[*:1])[*:2]].[dL].L.[Hyp].[meL].D.R.I.[am]}$$$$V2.0) | > 6.00 | –

Now from value to molecule, other results behind:

Row | pEC50 [1] | Molecule | RIOP, maximum percent reduction in IOP [2]
8 | > 6.00 | CCCCCCCC(=O)N1CCC[C@H](C(=O)N[C@@H](Cc2ccccc2)C(=O)NC2(C(=O)N[C@@H](CC(C)C)C(=O)N3C[C@H](O)C[C@H]3C(=O)N(C)[C@@H](CC(C)C)C(=O)N[C@@H](CC(=O)O)C(=O)N[C@@H](CCCNC(=N)N)C(=O)N[C@H](C(N)=O)[C@@H](C)CC)CCNCC2)C1 [JAL-1555, Occ-Sni-Phe-Apc-Leu-Hyp-Nml-Asp-Arg-Ile-NH2] (Octanoyl-[X2]F[Api]L[Hyp][NMeL]DRI-NH2) | + (+ IOP reduction >15%)
9 | > 6.00 | CCCCCCCC(=O)N1CCC[C@H](C(=O)N[C@@H](Cc2ccccc2)C(=O)N[C@H](CC(C)C)C(=O)N[C@@H](CC(C)C)C(=O)N2C[C@H](N)C[C@H]2C(=O)N(C)[C@@H](CC(C)C)C(=O)N[C@H](C(=O)N[C@@H](CCCNC(=N)N)C(=O)NC2CCCCCC2)C(C)C)C1 [JAL-1729, Occ-Sni-Phe-leu-Leu-Tap-Nml-Val-Arg-Che] (Octanoyl-[X2]F[dL]L[Pro(4R-NH2)][NMeL]VR-NHcycloheptyl) | + (+ IOP reduction >15%)
10 | > 6.00 | CCCCCCCC(=O)N1CCC[C@H](C(=O)N[C@@H](Cc2ccccc2)C(=O)N[C@H](CN(C)C)C(=O)N[C@@H](CC(C)C)C(=O)N2C[C@H](O)C[C@H]2C(=O)N(C)[C@@H](CC(C)C)C(=O)N[C@@H](CC(=O)O)C(=O)N[C@@H](CCCNC(=N)N)C(=O)N[C@H](C(N)=O)[C@@H](C)CC)C1 [JAL-1287, Occ-Sni-Phe-dap(Me2)-Leu-Hyp-Nml-Asp-Arg-Ile-NH2] (Octanoyl-[X2]F[dDap(Me2)]L[Hyp][NMeL]DRI-NH2) | + (+ IOP reduction >15%)
11 | > 6.00 | CCCCCCCC(=O)N1CCC[C@H](C(=O)N[C@@H](Cc2ccccc2)C(=O)N[C@H](CC(C)C)C(=O)N[C@@H](CC(C)C)C(=O)N2C[C@H](O)C[C@H]2C(=O)N(C)[C@@H](CC(C)C)C(=O)N[C@@H](CC(=O)O)C(=O)N2CCC[C@H]2C(=O)NC2CCCCCC2)C1 [JAL-1512_02, Occ-Sni-Phe-leu-Leu-Hyp-Nml-Asp-Pro-Che] (Octanoyl-[X2]F[dL]L[Hyp][NMeL]DP-NHcycloheptyl) | + (+ IOP reduction >15%)
12 | > 6.00 | CCCCCCCC(=O)N1CCC[C@H](C(=O)N[C@@H](Cc2ccccc2)C(=O)N[C@H](CC(C)C)C(=O)N[C@@H](CC(C)C)C(=O)N2C[C@H](N)C[C@H]2C(=O)N(C)[C@@H](CC(C)C)C(=O)N[C@@H](CC(=O)O)C(=O)N[C@@H](CCCNC(=N)N)C(=O)N[C@H](C(N)=O)[C@@H](C)CC)C1 [JAL-1295, Occ-Sni-Phe-leu-Leu-Tap-Nml-Asp-Arg-Ile-NH2] (Octanoyl-[X2]F[dL]L[Pro(4R-NH2)][NMeL]DRI-NH2) | + (+ IOP reduction >15%)
13 | > 6.00 | CCCCCCCC(=O)N1CCC[C@H](C(=O)N[C@@H](Cc2ccccc2)C(=O)N[C@H](CN(C)C)C(=O)N[C@@H](CC(C)C)C(=O)N2C[C@H](O)C[C@H]2C(=O)N(C)[C@@H](CC(C)C)C(=O)N[C@@H](CC(=O)O)C(=O)N2CCC[C@H]2C(=O)NC2CCCCCC2)C1 [JAL-1604, Occ-Sni-Phe-dap(Me2)-Leu-Hyp-Nml-Asp-Pro-Che] (Octanoyl-[X2]F[dDap(Me2)]L[Hyp][NMeL]DP-NHcycloheptyl) | –
14 | > 6.00 | CCCCCCCC(=O)N[C@H](C)C(=O)N[C@@H](Cc1ccccc1)C(=O)NC1(C(=O)N[C@@H](CC(C)C)C(=O)N2C[C@H](N)C[C@H]2C(=O)N(C)[C@@H](CC(C)C)C(=O)N[C@@H](CC(=O)O)C(=O)N2CCC[C@H]2C(=O)N[C@H](C(N)=O)[C@@H](C)CC)CCNCC1 [JAL-1452, Occ-ala-Phe-Apc-Leu-Tap-Nml-Asp-Pro-Ile-NH2] (Octanoyl-[dA]F[Api]L[Pro(4R-NH2)][NMeL]DPI-NH2) | –
